Source: US5846742A, “Selecting substances for treating glucocorticoid-mediated inflammation or immune diseases using Tripterygium wilfordii Hook F extracts” (Board of Regents, The University of Texas System, priority 1997, dated 1998)

What was measured:
[1] = tested on: IDH4 cells; assay type: cell-based, human; conditions: 72 hours, FIG. 25
Method: IDH4 cells, that express endogenous glucocorticoid receptors, were produced by transfecting human fibroblasts with a plasmid containing the MMTV-long terminal repeat driving the SV40 large T antigen. Since extended growth of these cells is dependent on expression of the large T antigen, these cells require exogenous glucocorticoid to maintain proliferation.
[^3 H]-Thymidine was present for the last 16 h. Data represent the mean k inhibition of [^3 H]-thymidine incorporation of three replicate determinations of three separate experiments.

[2] = tested on: human GR (COS-7 cells, MMTV-luciferase); assay: GR mediated MMTV-luciferase gene activation; assay type: cell-based; conditions: for GR-mediated target gene activation: purified TwHF compounds
Method: Cell transfections and assays of GR mediated gene activation. COS-7 cells were maintained in culture in DMEM-10% bovine calf serum. […] Cells were plated at 10^6 cells per 10 cm plate. Twenty-four hours later, the cells were transfected with 500 ng pRShGrα, a GR expression vector (obtained from the Salk Institute, La Jolla, Calif.) and 10 μg of pMMTV-luciferase, a synthetic reporter gene. However, other expression vectors and synthetic reporter genes available to those of skill in the art may be used for transfection. The vector pMMTV-luciferase contains the luciferase gene under regulatory control of glucocorticoid-inducible elements in the MMTV-long terminal repeat. Cells were transfected using the calcium-phosphate precipitation technique (mammalian transfection kit, Stratagene, La Jolla, Calif.). […] Twenty-four hours later, the cells were washed, harvested, and lysates prepared by three cycles of freeze/thawing. The lysates were cleared by centrifugation at 12,000×g for 5 minutes; aliquots were assayed for protein content and equal amounts of proteins were used for luciferase assays.
COS-7 cells were transfected with a human GR expression vector and the MMTV-luciferase reporter gene construct. A parallel set of plates was transfected with the constitutively active RSV-luciferase construct. […] Cells were lysed after 24 hours and assayed for luciferase activity.

[3] = tested on: lymph cells; conditions: concanavalin A; cited from earlier work
[4] = tested on: PGE2 production by human monocytes (COX-2); assay: Endotoxin induced PGE2 production by monocytes (COX-2); assay type: cell-based; conditions: LPS 10 μg/ml, 18 hours, FIG. 29
Method: After 18 hours of incubation, cell-free supernatants were collected and assayed for PGE2 content with a radioimmunoassay kit (Amersham), as described by the manufacturer. Data represent the mean of two replicate determinations of two separate experiments. […] Human monocytes produce prostaglandinE2 (PGE2) when stimulated with bacterial endotoxin.

[5] = tested on: T cells; assay: PHA-induced T cell proliferation, wilforonide (924); assay type: cell-based, human; conditions: at the level of ngs
Source text: The molecular groups responsible for the immune suppressive function of these compounds are unknown, however, the core structure of diterpenoids which may be related to their activity consists of an α-β-unsaturated 5 element lactone which can be identified by Kedde reagents. HPLC was used to fractionate the ethyl acetate extract of TwHF and the Kedde reagents were employed to trace the fractions. Then, the effect of selected fractions on the in vitro IL-2 production and [^3 H]-thymidine incorporation by PHA-activated T cells was determined. Fractions that inhibit these T cell functions were selected and the chromatographic pattern was identified with HPLC. One fraction was further purified with HPLC and crystallized repeatedly; a pure, crystallized compound was obtained and designated "924".
[^3 H]-thymidine was added for the last 14 hours of culture. Each concentration was run in quadruplicate (4 times) and the results for each concentration averaged to provide a mean. The mean cpm×10^3 values were combined and expressed as a percent of T cell inhibition.
or absence of the indicated concentrations of wilforonide for 3 days.
[^3 H]-Thymidine was added for the last 14 hours. Data are from 4
independent experiments.

[6] = tested on: T cells; assay: PHA-induced T cell DNA synthesis, triptolide; assay type: cell-based, human; conditions: for PHA-induced T cell DNA synthesis (3H-thymidine incorporation): control 93,400
[7] = tested on: B cells; assay: SA-induced B cell DNA synthesis / Ig production, triptolide; assay type: cell-based, human; conditions: for SA-induced B cell DNA synthesis (3H-thymidine incorporation): control 7,900
Source text: Other components of Tripterygium wilfordii Hook F include: […]

[8] = tested on: Fibroblasts; assay type: cell-based, human; conditions: triptolide 10 ng/ml
Method: The cells were assayed for cell viability by using a cytoflowmeter (FACSCAN) after the cells were stained with propidium iodine.

[9] = tested on: mouse spleen cells; conditions: high concentrations; cited from earlier work

SMILES | Dexamethasone dependent growth of IDH4 cells [1] | GR-mediated target gene activation [2] | Lymph cell proliferation [3] | Endotoxin induced PGE2 production / COX-2 induction [4] | Immunosuppressive action [5] | other results
CC(C)c1ccc2c(c1O)CC[C@H]1C3=C(CC[C@]21C)C(=O)OC3 [Triptophenolide, triptophenolide] | less active and its activity was not generally correlated with dosage | far less potent |  |  |  | Immunosuppressive activity relative to triptolide or tripdiolide [2]: much less immunosuppressive than triptolide or tripdiolide
CC(C)[C@]12O[C@H]1[C@@H]1O[C@@]13[C@@]1(C)CCC4=C(COC4=O)[C@@H]1C[C@@H]1O[C@@]13C2=O [Triptonide, triptonide, reference compound] |  |  | inhibit the proliferation of lymph cells induced by concanavalin A |  |  | 
CC(C)[C@]12O[C@H]1[C@@H]1O[C@]13[C@]1(O[C@H]1C[C@H]1C4=C(C(=O)OC4)[C@@H](O)C[C@@]13C)[C@@H]2O [Tripdiolide, tripdiolide] | inhibited dexamethasone dependent growth of IDH4 cells in a concentration dependent manner | inhibited target gene activation by GR |  | inhibited by the extract of TwHF and its purified immunosuppressive component, tripdiolide | potent immunosuppressive action | 
CC(C)[C@]12O[C@H]1[C@@H]1O[C@]13[C@]1(O[C@H]1C[C@H]1C4=C(CC[C@@]13C)C(=O)OC4)[C@@H]2O [Triptolide, triptolide] |  | inhibited target gene activation by GR | inhibit the proliferation of lymph cells induced by concanavalin A |  | potent immunosuppressive action | PHA-induced T cell DNA synthesis (3H-thymidine incorporation) ([6]; 0.1 ng/ml): 24,200 CPM; PHA-induced T cell DNA synthesis (3H-thymidine incorporation) ([6]; 1.0 ng/ml): 100 CPM; T lymphocyte proliferation ([6]; 0.1-1.0 ng/ml): inhibited proliferation of both T and B lymphocytes profoundly; SA-induced B cell DNA synthesis (3H-thymidine incorporation) ([7]; 0.1 ng/ml): 2,000 CPM; SA-induced B cell DNA synthesis (3H-thymidine incorporation) ([7]; 1.0 ng/ml): 100 CPM; B lymphocyte proliferation ([7]; 0.1-1.0 ng/ml): inhibited proliferation of both T and B lymphocytes profoundly; Immunoglobulin production, mitogen stimulated B lymphocytes ([7]; in vitro): inhibited the in vitro production of immunoglobulin from mitogen stimulated human B lymphocytes at comparably small concentrations; Toxicity to fibroblasts [8]: toxic to fibroblasts; Lymphocyte proliferation and IL-2 production [9]: suppress B and T lymphocyte proliferation and interleukin-2 production by mouse spleen cells
CC#C[C@]1(O)CC[C@H]2[C@@H]3CCC4=CC(=O)CCC4=C3[C@@H](c3ccc(N(C)C)cc3)C[C@@]21C [RU486, reference compound] |  |  |  | inhibits endotoxin-induced PGE2 production by human peripheral blood monocytes, however, it is not as effective as the TwHF extract at lower concentrations |  | 
